# Publication PMC10247784, “Physiological activation of human and mouse bitter taste receptors by bile acids” (Communications Biology, 2023)
# Biological target: T1, mouse Tas2r105 (Mus musculus, UniProt Q9JKT4)
# T1 construct: expressed in transfected cells; host or cells: HEK293T-Gα16gust44
# T1 sequence (Q9JKT4 1-300): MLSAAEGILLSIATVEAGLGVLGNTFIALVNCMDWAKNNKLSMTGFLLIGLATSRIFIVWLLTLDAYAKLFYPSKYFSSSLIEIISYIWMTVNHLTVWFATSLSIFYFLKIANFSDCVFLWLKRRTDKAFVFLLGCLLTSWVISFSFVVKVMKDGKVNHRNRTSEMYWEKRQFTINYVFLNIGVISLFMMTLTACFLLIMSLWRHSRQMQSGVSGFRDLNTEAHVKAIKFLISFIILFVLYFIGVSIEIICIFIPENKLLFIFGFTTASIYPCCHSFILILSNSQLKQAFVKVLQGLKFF
# Assay: Calcium imaging assay (FLIPR), HEK293T-Gα16gust44 cells transfected with mouse Tas2r105
# Assay type: cell-based
# Protocol: This set of bile acids was chosen because of their commercial availability in high purities, their diversity within the class of bile acids and their previous detection and quantitation in human blood. Stock solutions were prepared in DMSO.
# As basal growth medium for the HEK293T-Gα16gust44 cell line[17],[59] served Dulbecco’s modified eagle medium (DMEM) (Thermo Fisher Scientific, Darmstadt, Germany) supplemented with 10 % fetal bovine serum (Sigma-Aldrich, Steinheim, Germany), 2 mM L-glutamine (Sigma-Aldrich, Steinheim, Germany), 100 units/ml penicillin (Sigma Aldrich, Steinheim, Germany) and 100 µg/ml streptomycin (Sigma Aldrich, Steinheim, Germany). Growth conditions were 37 °C, 5 % CO2 and saturated air-humidity[60].
# HEK293T-Gα16gust44 cells were seeded on poly-D-lysine (10 µg/ml) coated 96-well plates to reach a confluence of 40-60 % the next day. For transient transfection 150 ng of plasmid DNA containing the receptor of interest and 0.3 µl lipofectamine 2000 (Thermo Fisher Scientific, Darmstadt, Germany) per well were used and transfection took place according to the manual of lipofectamine 2000. […] The empty vector DNA (mock) was transfected as negative control[14],[41].
# Cells were loaded using the calcium-sensitive fluorescent dye Fluo-4-AM (Abcam, Cambridge, Great Britain) in the presence of 2.5 mM probenecid (Sigma-Aldrich, Steinheim, Germany) the day after transfection[13],[41]. 1 h after loading, cells were washed with C1 buffer using a BioTek Cell Washer, incubated in the dark for half an hour and washed again. For automated agonist application and measurement of fluorescence changes, a FLIPR^TETRA device (Molecular Devices, San José, United States) was used. Viability of cells was tested by application of 100 nM Somatostatin 14 (Bachem, Bubendorf, Switzerland)[42].
# Measured data were negative control corrected by subtracting the signal of the mock-transfected cells and exported to Microsoft Excel using the FLIPR software ScreenWorks 4.2. In Microsoft Excel software, standardization of maximum fluorescence intensities to the basal fluorescence and normalization to the buffer-only control was done to calculate the relative fluorescence changes (ΔF/F).
# Initial screening experiments performed in duplicate wells were confirmed by at least one replication and representative traces were selected for display. All dose-response relationships were determined by three independent experiments (biological replicates) performed in duplicates (technical replicates). Threshold concentrations, defined as lowest substance concentrations leading to statistically significant elevated fluorescence changes in receptor-transfected cells compared with empty vector-transfected cells, were determined using SigmaPlot with Student’s t-test to evaluate statistical significance (p < 0.01).
smiles,measurement,setting,value
"C[C@H](CCC(=O)O)[C@H]1CC[C@H]2[C@@H]3CC[C@@H]4C[C@H](O)CC[C@]4(C)[C@H]3C[C@H](O)[C@]12C [Deoxycholic Acid, deoxycholic acid]",RLU,Time 0 s,0 RLU
same,RLU,Time 2 s,-7.941 RLU
same,RLU,Time 4 s,8.425 RLU
same,RLU,Time 6 s,-2.576 RLU
same,RLU,Time 8 s,14.8013 RLU
same,RLU,Time 12 s,-9.724 RLU
same,RLU,Time 14 s,-8.452 RLU
same,RLU,Time 16 s,1.889 RLU
same,RLU,Time 18 s,-2.18 RLU
same,RLU,Time 18.781 s,-20.0658 RLU
same,RLU,Time 20.781 s,-17.0266 RLU
same,RLU,Time 22.781 s,-39.9091 RLU
same,RLU,Time 24.781 s,0.577 RLU
same,RLU,Time 26.781 s,-0.6161 RLU
same,RLU,Time 28.781 s,4.903 RLU
same,RLU,Time 30.781 s,-6.367 RLU
same,RLU,Time 32.781 s,-0.4375 RLU
same,RLU,Time 34.781 s,4.775 RLU
same,RLU,Time 36.781 s,-8.6591 RLU
same,RLU,Time 38.781 s,-14.3055 RLU
same,RLU,Time 40.781 s,9.418 RLU
same,RLU,Time 42.781 s,-11.7018 RLU
same,RLU,Time 44.781 s,-11.9371 RLU
same,RLU,Time 46.781 s,4.597 RLU
same,RLU,Time 48.781 s,27.0511 RLU
same,RLU,Time 50.781 s,-9.756 RLU
same,RLU,Time 52.781 s,20.1786 RLU
same,RLU,Time 54.781 s,19.4961 RLU
same,RLU,Time 56.781 s,5.269 RLU
same,RLU,Time 58.781 s,38.5167 RLU
same,RLU,Time 60.781 s,24.5618 RLU
same,RLU,Time 62.781 s,36.5379 RLU
same,RLU,Time 64.781 s,21.9337 RLU
same,RLU,Time 66.781 s,35.0054 RLU
same,RLU,Time 68.781 s,34.4928 RLU
same,RLU,Time 70.781 s,42.8161 RLU
same,RLU,Time 72.781 s,53.1321 RLU
same,RLU,Time 74.781 s,54.3186 RLU
same,RLU,Time 76.781 s,66.018 RLU
same,RLU,Time 78.781 s,45.8125 RLU
same,RLU,Time 80.781 s,59.5249 RLU
same,RLU,Time 82.781 s,62.7416 RLU
same,RLU,Time 84.781 s,68.7087 RLU
same,RLU,Time 86.781 s,90.9377 RLU
same,RLU,Time 88.781 s,81.07 RLU
same,RLU,Time 90.781 s,72.636 RLU
same,RLU,Time 92.781 s,97.4301 RLU
same,RLU,Time 94.781 s,105.551 RLU
same,RLU,Time 96.781 s,100.341 RLU
same,RLU,Time 98.781 s,103.309 RLU
same,RLU,Time 100.781 s,117.485 RLU
same,RLU,Time 102.781 s,130.646 RLU
same,RLU,Time 104.781 s,147.286 RLU
same,RLU,Time 106.781 s,108.305 RLU
same,RLU,Time 108.781 s,142.084 RLU
same,RLU,Time 110.781 s,147.264 RLU
same,RLU,Time 112.781 s,118.273 RLU
same,RLU,Time 114.781 s,167.002 RLU
same,RLU,Time 116.781 s,149.721 RLU
same,RLU,Time 118.781 s,160.265 RLU
same,RLU,Time 120.781 s,160.404 RLU
same,RLU,Time 122.781 s,193.86 RLU
same,RLU,Time 124.781 s,179.508 RLU
same,RLU,Time 126.781 s,161.679 RLU
same,RLU,Time 128.781 s,158.603 RLU
same,RLU,Time 130.781 s,180.418 RLU
same,RLU,Time 132.781 s,180.045 RLU
same,RLU,Time 134.781 s,177.913 RLU
same,RLU,Time 136.781 s,194.619 RLU
same,RLU,Time 137.562 s,177.939 RLU
same,RLU,Time 143.562 s,180.507 RLU
same,RLU,Time 149.562 s,188.634 RLU
same,RLU,Time 155.562 s,199.157 RLU
same,RLU,Time 161.562 s,206.349 RLU
same,RLU,Time 167.562 s,208.396 RLU
same,RLU,Time 173.562 s,211.199 RLU
same,RLU,Time 179.562 s,201.145 RLU
same,RLU,Time 185.562 s,195.662 RLU
same,RLU,Time 191.562 s,211.659 RLU
same,RLU,Time 197.562 s,209.959 RLU
same,RLU,Time 203.562 s,191.361 RLU
same,RLU,Time 209.562 s,208.831 RLU
same,RLU,Time 215.562 s,204.186 RLU
same,RLU,Time 221.562 s,168.101 RLU
same,RLU,Time 227.562 s,191.058 RLU
same,RLU,Time 233.562 s,174.166 RLU
same,RLU,Time 239.562 s,185.934 RLU
same,RLU,Time 245.562 s,176.351 RLU
same,RLU,Time 293.562 s,157.143 RLU
same,RLU,Time 299.562 s,147.048 RLU
same,RLU,Time 305.562 s,138.332 RLU
same,RLU,Time 311.562 s,135.378 RLU
same,RLU,Time 317.562 s,138.908 RLU
same,RLU,Time 323.562 s,128.724 RLU
same,RLU,Time 329.562 s,125.639 RLU
same,RLU,Time 335.562 s,124.441 RLU
same,RLU,Time 341.562 s,111.174 RLU
same,RLU,Time 347.562 s,105.923 RLU
same,RLU,Time 353.562 s,95.2183 RLU
same,RLU,Time 359.562 s,94.5256 RLU
same,Activation threshold concentration Tas2r105,p < 0.01 vs empty vector,10 µM
